Data from ChEMBL document CHEMBL1150318, “Discovery of a novel, orally active himbacine-based thrombin receptor antagonist (SCH 530348) with potent antiplatelet activity” (J Med Chem, 2008).

Legend:
Platelet [1] = experiment: Ex vivo inhibition of haTRAP-induced platelet aggregation in cynomolgus monkey at 1 mg/kg, po after 6 hrs by impedance aggregometry; type: functional; settings: Macaca fascicularis
[2] = target: T1, Proteinase-activated receptor 1 (Homo sapiens, UniProt P25116); experiment: Displacement of [3H]haTRAP from PAR1 in human platelets
T1 sequence (P25116 whole entry): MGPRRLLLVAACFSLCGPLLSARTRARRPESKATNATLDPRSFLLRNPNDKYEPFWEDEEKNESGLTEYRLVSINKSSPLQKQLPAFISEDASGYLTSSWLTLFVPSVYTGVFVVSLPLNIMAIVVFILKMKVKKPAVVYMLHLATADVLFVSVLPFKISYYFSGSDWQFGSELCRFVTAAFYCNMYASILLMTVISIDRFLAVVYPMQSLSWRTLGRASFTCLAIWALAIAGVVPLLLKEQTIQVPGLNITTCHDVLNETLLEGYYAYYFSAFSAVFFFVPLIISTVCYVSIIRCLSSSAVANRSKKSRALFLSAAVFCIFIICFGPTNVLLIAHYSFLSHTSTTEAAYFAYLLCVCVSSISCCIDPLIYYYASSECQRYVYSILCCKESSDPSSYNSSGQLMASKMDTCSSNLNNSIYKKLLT

[3] = Cmax in cynomolgus monkey at 1 mg/kg, po after 24 hrs; type: ADME, organism-based, Macaca fascicularis; design: dose 1 mg/kg, route oral; settings: in vivo
Platelet [4] = experiment: Ex vivo inhibition of haTRAP-induced platelet aggregation in cynomolgus monkey at 1 mg/kg, po after 24 hrs by impedance aggregometry; type: functional; settings: Macaca fascicularis
[5] = AUC (0 to 24 hrs) in cynomolgus monkey at 1 mg/kg, po after 24 hrs; type: ADME, organism-based, Macaca fascicularis; design: time < 24 hr, dose 1 mg/kg, route oral; settings: plasma

| Compound | Ki [2] [nM] | also measured |
| --- | --- | --- |
| C[C@H]1OC(=O)[C@@H]2C[C@@H]3C[C@H](NS(C)(=O)=O)CC[C@H]3[C@H](/C=C/c3ccc(-c4cccc(F)c4)cn3)[C@H]12 | 11 | inhibition in vivo at 1 mg/kg (Platelet [1]): < 40% |
| CCOC(=O)N[C@@H]1CC[C@@H]2[C@@H](C1)C[C@H]1C(=O)O[C@H](C)[C@H]1[C@H]2/C=C/c1ccc(-c2cccc(Cl)c2)cn1 | 11 | – |
| COC(=O)N[C@@H]1CC[C@@H]2[C@@H](C1)C[C@H]1C(=O)O[C@H](C)[C@H]1[C@H]2/C=C/c1ccc(-c2cccc(F)c2)cn1 | 6.1 | – |
| CCOC(=O)N[C@@H]1CC[C@@H]2[C@@H](C1)C[C@H]1C(=O)O[C@H](C)[C@H]1[C@H]2/C=C/c1ccc(-c2cccc(C(N)=O)c2)cn1 | 367 | – |
| CC(=O)N[C@@H]1CC[C@@H]2[C@@H](C1)C[C@H]1C(=O)O[C@H](C)[C@H]1[C@H]2/C=C/c1ccc(-c2cccc(C(F)(F)F)c2)cn1 | 30 | – |
| CCCN(C(=O)OCC)[C@@H]1CC[C@@H]2[C@@H](C1)C[C@H]1C(=O)O[C@H](C)[C@H]1[C@H]2/C=C/c1ccc(-c2cccc(F)c2)cn1 | 89 | – |
| CCC(=O)N[C@@H]1CC[C@@H]2[C@@H](C1)C[C@H]1C(=O)O[C@H](C)[C@H]1[C@H]2/C=C/c1ccc(-c2cccc(F)c2)cn1 | 6.4 | Cmax [3]: 750 nM; inhibition in vivo at 1 mg/kg (Platelet [4]): 100%; AUC(0-t) at 24 h [5]: 11.4 µM·h |
| CCOC(=O)N(C)[C@@H]1CC[C@@H]2[C@@H](C1)C[C@H]1C(=O)O[C@H](C)[C@H]1[C@H]2/C=C/c1ccc(-c2cccc(C(F)(F)F)c2)cn1 | 3.7 | – |
| CCOC(=O)N[C@@H]1CC[C@@H]2[C@@H](C1)C[C@H]1C(=O)O[C@H](C)[C@H]1[C@H]2/C=C/c1ccc(-c2cccc(OC)c2)cn1 | 5.9 | – |
| CC(=O)N[C@@H]1CC[C@@H]2[C@@H](C1)C[C@H]1C(=O)O[C@H](C)[C@H]1[C@H]2/C=C/c1ccc(-c2cccc(F)c2)cn1 | 6.2 | – |
| C[C@H]1OC(=O)[C@@H]2C[C@@H]3C[C@H](NS(C)(=O)=O)CC[C@H]3[C@H](/C=C/c3ccc(-c4cccc(C(F)(F)F)c4)cn3)[C@H]12 | 10 | – |
| CCCOC(=O)N[C@@H]1CC[C@@H]2[C@@H](C1)C[C@H]1C(=O)O[C@H](C)[C@H]1[C@H]2/C=C/c1ccc(-c2cccc(F)c2)cn1 | 17 | – |
| CCOC(=O)N[C@@H]1CC[C@@H]2[C@@H](C1)C[C@H]1C(=O)O[C@H](C)[C@H]1[C@H]2/C=C/c1ccc(-c2cc(F)cc(F)c2)cn1 | 5.9 | – |
| CNC(=O)N[C@@H]1CC[C@@H]2[C@@H](C1)C[C@H]1C(=O)O[C@H](C)[C@H]1[C@H]2/C=C/c1ccc(-c2cccc(F)c2)cn1 | 4.4 | Cmax [3]: 260 nM; inhibition in vivo at 1 mg/kg (Platelet [4]): 55%; AUC(0-t) at 24 h [5]: 2.63 µM·h |
| CCOC(=O)N[C@@H]1CC[C@@H]2[C@@H](C1)C[C@H]1C(=O)O[C@H](C)[C@H]1[C@H]2/C=C/c1ccc(-c2cccc(C)c2F)cn1 | 11 | Cmax [3]: 20 nM; inhibition in vivo at 1 mg/kg (Platelet [4]): 100%; AUC(0-t) at 24 h [5]: 0.13 µM·h |
| C[C@H]1OC(=O)[C@@H]2C[C@@H]3C[C@H](NC(=O)OC(C)(C)C)CC[C@H]3[C@H](/C=C/c3ccc(-c4cccc(C#N)c4)cn3)[C@H]12 | 44 | – |
| C[C@H]1OC(=O)[C@@H]2C[C@@H]3C[C@H](N)CC[C@H]3[C@H](/C=C/c3ccc(-c4cccc(F)c4)cn3)[C@H]12 | 20 | inhibition in vivo at 1 mg/kg (Platelet [1]): < 40% |
| C[C@H]1OC(=O)[C@@H]2C[C@@H]3C[C@H](NC(=O)C4CC4)CC[C@H]3[C@H](/C=C/c3ccc(-c4cccc(F)c4)cn3)[C@H]12 | 6.5 | Cmax [3]: 390 nM; inhibition in vivo at 1 mg/kg (Platelet [4]): 100%; AUC(0-t) at 24 h [5]: 5.53 µM·h |
| CCNC(=O)N[C@@H]1CC[C@@H]2[C@@H](C1)C[C@H]1C(=O)O[C@H](C)[C@H]1[C@H]2/C=C/c1ccc(-c2cccc(F)c2)cn1 | 4.8 | – |
